Solubility and IC50 data for 4 compounds are collected here from patent publication US20240417395A1, “DUAL ANTAGONIST AND USE THEREOF” (NICOYA THERAPEUTICS (SHANGHAI) CO., LTD, priority 2021, published 2024).

The nature of data set [1]: Experiment on water solubility (HPLC-UV). In kind it is physicochemical. How it is done: The detection was carried out in accordance with the high performance liquid chromatography (General Principles 0512 of Chinese Pharmacopoeia Volume IV (2020)):
Chromatographic conditions for the HPLC-UV method: mobile phase: 0.02 M KH2PO4 aqueous solution-acetonitrile (90:10), gradient elution; chromatographic column: C18; detection wavelength: 210 nm. The water solubility was calculated based on the peak area by the external standard method.

For the next data set, the target named is AT1 (Homo sapiens (Human), UniProt P30556). Description: Calcium flux assay on AT1 cell line. The data set is classed as cell-based. Particulars: AT1/HEK293, calcium flux, angiotensin II agonist. How it is done:
Test materials: a) cell line: AT1/HEK293; b) vehicles: F12, Invitrogen (Cat #11765-047); FBS, Corning (Cat #35-076-CV); Geneticin, Invitrogen (Cat #10131); c) reagent: Fluo-4 Direct, (Invitrogen, Cat #F10471); d) instruments: 384 well Poly-D-Lysine protein coating plate, Greiner #781946; Vi-cell XR Cell Viability Analyzer, Beckman Coulter; Incubator, Thermo.
For the agonist (angiotensin II) master plate, the agonist solution was diluted from 1 mM to 200 μM with the test buffer solution. […] Afterwards, 900 nL of each compound solution was transferred to the master plate and 30 μL of the test buffer solution was added. • a) The cell plate was removed from the incubator, and 20 μL of 2X Fluo-4 Direct was added by a pipette to a 384-well cell plate. • b) The cell plate was incubated at 37° C. for 50 min in the environment of 5% CO2, and then incubated at room temperature for 10 min. • c) The cell plate was removed from the incubator and placed in FLIPR. The compound plates and the tip box were placed in FLIPR. • d) Regarding the EC80 plate: • 1) Operations were conducted on […]. • 2) 10 μL of compound solution was transferred from the EC80 master plate to the cell plate. • 3) Fluorescence signals were read. • 4) The read signals were counted, and the EC80 value of each cell line was calculated using FLIPR. • 5) For the concentration of the compound plate, a solution having a concentration 6 times that of the reference agonist EC80 was formulated. • e) Regarding the compound plate: • 1) Operations were conducted on […]. • 2) 10 μL of compound was transferred to the cell plate. • 3) Fluorescence signals were read. • 4) 10 μL of solution having a concentration 6 times that of the reference agonist EC80 was transferred. • 5) Fluorescence signals were read. • f) Data analysis by Prism

In another data set the target is ETa (Homo sapiens (Human), UniProt P25101). In words: Calcium flux assay on ETa cell line. The data set is classed as cell-based. The following applies: ETa/HEK293, calcium flux, endothelin-1 agonist. How it is done:
Test materials: a) cell line: ETa/HEK293; b) vehicles: DMEM, Invitrogen (Cat #11960); Geneticin, Invitrogen (Cat #10131); c) reagent: Fluo-4 Direct, (Invitrogen, Cat #F10471); d) instruments: 384 well Poly-D-Lysine protein coating plate, Greiner #781946; Vi-cell XR Cell Viability Analyzer, Beckman Coulter; Incubator, Thermo.
For the employed agonist endothelin factor (endothelin-1, ET-1) master plate: the agonist was diluted from 50 μM to 15 μM with the test buffer solution.
For antagonist (BQ123, Am J Physiol. 1994 April; 266 (4 Pt 2): H1327-31.) plates and the compound plates: the antagonist and the tested compounds were diluted with DMSO at a gradient ratio of 1:4 to obtain 10 concentration points. Afterwards, 900 nL of each compound solution was transferred to the master plate and 30 μL of the test buffer solution was added. • a) The cell line was removed from the incubator, and 20 μL of 2X Fluo-4 Direct™ buffer solution was added gently by a pipette to a 384-well cell culture plate. • b) The cell plate was incubated at 37° C. for 50 min in the environment of 5% CO2, and then incubated at room temperature for 10 min. • c) The cell plate was removed from the incubator and placed in FLIPR. The compound plates and the tip box were placed in FLIPR. • d) Regarding the EC80 plate: • 1) Operations were conducted on […]. • 2) 10 μL of compound solution was transferred from the EC80 master plate to the cell plate. • 3) Fluorescence signals were read. • 4) The read signals were counted, and the EC80 value of each cell line was calculated using FLIPR. • 5) For the concentration of the compound plate, a solution having a concentration 6 times that of the reference agonist EC80 was formulated. • e) Regarding the compound plate: • 1) Operations were conducted on […]. • 2) 10 μL of compound was transferred to the cell plate. • 3) Fluorescence signals were read. • 4) 10 μL of solution having a concentration 6 times that of the reference agonist EC80 was transferred to the cell plate. • 5) Fluorescence signals were read. • f) Data analysis by Prism

Structures are written as SMILES. Converted amounts (≈) assume the structure as drawn. Like-named read-outs stand apart in the source and are kept apart here. Residues, ends and D or L forms follow the SMILES beside them.

AT1, sequence (P30556 whole entry): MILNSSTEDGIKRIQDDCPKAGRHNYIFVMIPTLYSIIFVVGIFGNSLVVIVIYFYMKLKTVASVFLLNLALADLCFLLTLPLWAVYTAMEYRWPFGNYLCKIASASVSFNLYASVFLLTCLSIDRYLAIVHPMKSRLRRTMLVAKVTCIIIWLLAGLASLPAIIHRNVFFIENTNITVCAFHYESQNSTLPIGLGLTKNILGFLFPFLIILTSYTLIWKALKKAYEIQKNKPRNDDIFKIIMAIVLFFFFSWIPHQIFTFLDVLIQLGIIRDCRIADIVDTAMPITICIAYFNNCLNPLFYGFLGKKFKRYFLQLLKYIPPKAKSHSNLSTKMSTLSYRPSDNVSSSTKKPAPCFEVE
ETa, sequence (P25101 21-427): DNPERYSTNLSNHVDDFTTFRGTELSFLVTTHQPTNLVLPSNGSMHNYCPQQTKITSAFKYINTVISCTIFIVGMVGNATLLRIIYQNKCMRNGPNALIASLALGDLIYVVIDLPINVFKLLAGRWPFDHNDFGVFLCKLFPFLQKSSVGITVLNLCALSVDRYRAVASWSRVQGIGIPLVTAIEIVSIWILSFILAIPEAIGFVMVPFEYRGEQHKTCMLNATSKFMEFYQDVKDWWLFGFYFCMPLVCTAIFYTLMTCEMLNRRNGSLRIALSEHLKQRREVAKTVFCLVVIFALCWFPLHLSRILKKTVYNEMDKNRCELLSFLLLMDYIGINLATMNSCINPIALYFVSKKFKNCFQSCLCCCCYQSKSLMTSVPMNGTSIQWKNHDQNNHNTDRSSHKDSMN

In the case of `CCCCC1=NC2(CC3(CC3)C2)C(=O)N1Cc1ccc(-c2ccccc2S(=O)(=O)Nc2noc(C)c2C)c(COCC)c1` [Example 1], the solubility in data set [1] (aqueous medium at pH 7.4 (buffer not named), pH 7.4, aqueous buffer, pH7.4, read-out: Solubility pH7.4) is 0.37 mg/mL (≈ 612 µM); in data set [1] (pH 1.6, fassgf or other biorelevant, FaSSGF (pH1.6), read-out: Solubility FaSSGF (pH1.6)) it was > 1 mg/mL; in data set [1] (pH 5, FeSSIF (pH5.0), read-out: Solubility FeSSIF (pH5.0)), 0.2 mg/mL (≈ 331 µM); in data set [1] (pH 6.5, FaSSIF (pH6.5), read-out: Solubility FaSSIF (pH6.5)) it was 0.61 mg/mL (≈ 1010 µM). The results for the half-inhibitory concentration (IC50) at AT1 (read-out: IC50 against AT1) and at ETa (read-out: IC50 against ETa) were 0.0029 µM and 0.0246 µM, respectively.
In the case of `CCCCC1=N[C@]2(C[C@H]3C[C@H]3C2)C(=O)N1Cc1ccc(-c2ccccc2S(=O)(=O)Nc2noc(C)c2C)c(CN(C)C(=O)CC(C)(C)C)c1` [Example 6], the results for the IC50 on AT1 (read-out: IC50 against AT1) and on ETa (read-out: IC50 against ETa) were 0.258 µM and 0.0176 µM, respectively.
For `CCCCC1=N[C@]2(C[C@H]3C[C@H]3C2)C(=O)N1Cc1ccc(-c2ccccc2S(=O)(=O)Nc2noc(C)c2C)c(COCC)c1` [Example 4], the values for the IC50 at AT1 (read-out: IC50 activity against AT1 (class)), at AT1 (read-out: IC50 against AT1) and on ETa (read-out: IC50 against ETa) were 0.001 to 0.01 µM, 0.00478 µM and 0.132 µM, respectively.
In the case of `CC(C)C[C@@H]1NC(=O)[C@@H](C(C)C)NC(=O)[C@@H]2CCCN2C(=O)[C@@H](CC(=O)O)NC(=O)[C@@H](Cc2c[nH]c3ccccc23)NC1=O` [BQ123, reference compound] (HELM PEPTIDE1{L.[dW].[dD].P.[dV]}$PEPTIDE1,PEPTIDE1,1:R1-5:R2$$$V2.0), the figures for the IC50 at ETa (read-out: IC50 activity against ETa (class)) and on ETa (read-out: IC50 against ETa) were 0.001 to 0.01 µM and 0.00256 µM, respectively.
